What follows are molecules tested against human MGL from HeLa cells (Homo sapiens (Human), UniProt Q99685) (assay: MGL in vitro activity assay ([glycerol-1,3-3H]-oleoyl glycerol cleavage, activated carbon filter)). Settings: 300 nM [Glycerol-1,3-3H]-oleoyl glycerol, endogenously expressed MGL from HeLa cells, one hour incubation; read-out: MGL IC50.
Format: biochemical
Procedure, shortened: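 Endogenous MGL in HeLa cells or homogenates was incubated with compound and 300 nM [glycerol-1,3-3H]-oleoyl glycerol for one hour. Reactions were filtered through activated carbon, and tritiated glycerol in the flow-through was counted as a measure of activity.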

Sequence of human MGL from HeLa cells (Q99685 whole entry): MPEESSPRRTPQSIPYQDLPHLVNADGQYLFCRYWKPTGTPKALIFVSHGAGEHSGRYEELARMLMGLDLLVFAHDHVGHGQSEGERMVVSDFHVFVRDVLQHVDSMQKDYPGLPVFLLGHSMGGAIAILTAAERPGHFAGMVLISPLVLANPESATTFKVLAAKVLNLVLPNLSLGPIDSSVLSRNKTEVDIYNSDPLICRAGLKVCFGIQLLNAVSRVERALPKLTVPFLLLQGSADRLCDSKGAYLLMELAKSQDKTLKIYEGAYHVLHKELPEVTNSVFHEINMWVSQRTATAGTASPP

Compound | IC50 [nM]
CC(C)(C)c1cccc([C@H]2[C@@H]3CN(C(=O)[C@H]4C[C@]5(CCC(=O)N5)C4)C[C@@H]32)c1 [Example 79, (2r,4S)-2-((1R,5S,6S)-6-(3-(tert-Butyl)phenyl)-3-azabicyclo[3.1.0]hexane-3-carbonyl)-5-azaspiro[3.4]octan-6-one] | 7.2
O=C1N[C@]2(CO1)C[C@H](C(=O)N1C[C@@H]3[C@H](C1)[C@H]3c1ccc(C(F)(F)F)cc1)C2 [Example 80, (2s,4S)-2-((1R,5S,6S)-6-(4-(Trifluoromethyl)phenyl)-3-azabicyclo[3.1.0]hexane-3-carbonyl)-7-oxa-5-azaspiro[3.4]octan-6-one] | 33
O=C1CC[C@]2(C[C@H](C(=O)N3C[C@@H]4[C@H](C3)[C@H]4c3ccc(C(F)(F)F)cc3)C2)N1 [Example 81, (2r,4S)-2-((1R,5S,6S)-6-(4-(Trifluoromethyl)phenyl)-3-azabicyclo[3.1.0]hexane-3-carbonyl)-5-azaspiro[3.4]octan-6-one] | 206
CC(C)(C)c1ccc([C@H]2[C@@H]3CN(C(=O)[C@H]4C[C@]5(CCC(=O)N5)C4)C[C@@H]32)cc1 [Example 83, (2r,4S)-2-((1R,5S,6S)-6-(4-(tert-Butyl)phenyl)-3-azabicyclo[3.1.0]hexane-3-carbonyl)-5-azaspiro[3.4]octan-6-one] | 2.9
CC(C)c1cccc([C@H]2[C@@H]3CN(C(=O)[C@H]4C[C@]5(COC(=O)N5)C4)C[C@@H]32)c1 [Example 84, (2s,4S)-2-((1R,5S,6S)-6-(3-Isopropylphenyl)-3-azabicyclo[3.1.0]hexane-3-carbonyl)-7-oxa-5-azaspiro[3.4]octan-6-one] | 5.5
Cc1ccc([C@H]2[C@@H]3CN(C(=O)[C@H]4C[C@]5(COC(=O)N5)C4)C[C@@H]32)cc1C(F)(F)F [Example 85, (2s,4S)-2-((1R,5S,6S)-6-(4-Methyl-3-(trifluoromethyl)phenyl)-3-azabicyclo[3.1.0]hexane-3-carbonyl)-7-oxa-5-azaspiro[3.4]octan-6-one] | 4.4
Cc1ccc([C@H]2[C@@H]3CN(C(=O)[C@H]4C[C@]5(COC(=O)N5)C4)C[C@@H]32)cc1C [Example 88, (2s,4S)-2-((1R,5S,6S)-6-(3,4-Dimethylphenyl)-3-azabicyclo[3.1.0]hexane-3-carbonyl)-7-oxa-5-azaspiro[3.4]octan-6-one] | 29
CC(C)c1ccc([C@H]2[C@@H]3CN(C(=O)[C@H]4C[C@]5(COC(=O)N5)C4)C[C@@H]32)cc1 [Example 90, (2s,4S)-2-((1R,5S,6S)-6-(4-Isopropylphenyl)-3-azabicyclo[3.1.0]hexane-3-carbonyl)-7-oxa-5-azaspiro[3.4]octan-6-one] | 2.8
Cc1ccccc1[C@H]1[C@@H]2CN(C(=O)[C@H]3C[C@]4(COC(=O)N4)C3)C[C@@H]21 [Example 98, (2s,4S)-2-((1R,5S,6S)-6-(o-Tolyl)-3-azabicyclo[3.1.0]hexane-3-carbonyl)-7-oxa-5-azaspiro[3.4]octan-6-one] | 150
CC(C)(CO)c1cccc([C@H]2[C@@H]3CN(C(=O)[C@H]4C[C@]5(COC(=O)N5)C4)C[C@@H]32)c1 [Example 104, (2s,4S)-2-((1R,5S,6S)-6-(3-(1-Hydroxy-2-methylpropan-2-yl)phenyl)-3-azabicyclo[3.1.0]hexane-3-carbonyl)-7-oxa-5-azaspiro[3.4]octan-6-one] | 19
CC(C)(C(=O)O)c1cccc([C@H]2[C@@H]3CN(C(=O)[C@H]4C[C@]5(COC(=O)N5)C4)C[C@@H]32)c1 [Example 105] | 300
Cc1cc(C2CC2)ccc1[C@H]1[C@@H]2CN(C(=O)[C@H]3C[C@]4(COC(=O)N4)C3)C[C@@H]21 [Example 109, (2s,4S)-2-((1R,5S,6S)-6-(4-Cyclopropyl-2-methylphenyl)-3-azabicyclo[3.1.0]hexane-3-carbonyl)-7-oxa-5-azaspiro[3.4]octan-6-one] | 1.6
Cc1ccc([C@H]2[C@@H]3CN(C(=O)[C@H]4C[C@]5(COC(=O)N5)C4)C[C@@H]32)cc1Cl [Example 110, (2s,4S)-2-((1R,5S,6S)-6-(3-Chloro-4-methylphenyl)-3-azabicyclo[3.1.0]hexane-3-carbonyl)-7-oxa-5-azaspiro[3.4]octan-6-one] | 17
Cc1c([C@H]2[C@@H]3CN(C(=O)[C@H]4C[C@]5(COC(=O)N5)C4)C[C@@H]32)cccc1C(F)(F)F [Example 113] | 78
CC(C)(C)c1cccc([C@H]2[C@@H]3CN(C(=O)[C@H]4C[C@]5(COC(=O)N5)C4)C[C@@H]32)n1 [Example 116, (2s,4S)-2-((1R,5S,6R)-6-(6-(tert-Butyl)pyridin-2-yl)-3-azabicyclo[3.1.0]hexane-3-carbonyl)-7-oxa-5-azaspiro[3.4]octan-6-one] | 5.2

More lines, now with the values ahead:

IC50 [nM] | Compound
9.6 | O=C1N[C@]2(CO1)C[C@H](C(=O)N1CC[C@]3(c4ccccc4)C[C@@H]3C1)C2 [Example 41, (2s,4R)-2-((1S,6R)-6-Phenyl-3-azabicyclo[4.1.0]heptane-3-carbonyl)-7-oxa-5-azaspiro[3.4]octan-6-one]
25 | CCc1ccc([C@H]2[C@@H]3CN(C(=O)[C@H]4C[C@]5(COC(=O)N5)C4)C[C@@H]32)cc1 [Example 86, (2s,4S)-2-((1R,5S,6S)-6-(4-Ethylphenyl)-3-azabicyclo[3.1.0]hexane-3-carbonyl)-7-oxa-5-azaspiro[3.4]octan-6-one]
131 | CCc1ccc([C@H]2[C@@H]3CN(C(=O)[C@H]4C[C@]5(CCC(=O)N5)C4)C[C@@H]32)cc1 [Example 87, (2r,4S)-2-((1R,5S,6S)-6-(4-Ethylphenyl)-3-azabicyclo[3.1.0]hexane-3-carbonyl)-5-azaspiro[3.4]octan-6-one]
178 | Cc1ccc([C@H]2[C@@H]3CN(C(=O)[C@H]4C[C@]5(CCC(=O)N5)C4)C[C@@H]32)cc1C [Example 89, (2r,4S)-2-((1R,5S,6S)-6-(3,4-Dimethylphenyl)-3-azabicyclo[3.1.0]hexane-3-carbonyl)-5-azaspiro[3.4]octan-6-one]
20 | CC(C)c1ccc([C@H]2[C@@H]3CN(C(=O)[C@H]4C[C@]5(CCC(=O)N5)C4)C[C@@H]32)cc1 [Example 91, (2r,4S)-2-((1R,5S,6S)-6-(4-Isopropylphenyl)-3-azabicyclo[3.1.0]hexane-3-carbonyl)-5-azaspiro[3.4]octan-6-one]
1.5 | CC(C)Cc1cccc([C@H]2[C@@H]3CN(C(=O)[C@H]4C[C@]5(COC(=O)N5)C4)C[C@@H]32)c1 [Example 101, (2s,4S)-2-((1R,5S,6S)-6-(3-Isobutylphenyl)-3-azabicyclo[3.1.0]hexane-3-carbonyl)-7-oxa-5-azaspiro[3.4]octan-6-one]
11 | CCc1cc([C@H]2[C@@H]3CN(C(=O)[C@H]4C[C@]5(COC(=O)N5)C4)C[C@@H]32)ccc1F [Example 111, (2s,4S)-2-((1R,5S,6S)-6-(3-Ethyl-4-fluorophenyl)-3-azabicyclo[3.1.0]hexane-3-carbonyl)-7-oxa-5-azaspiro[3.4]octan-6-one]
5.2 | Cc1ccc([C@H]2[C@@H]3CN(C(=O)[C@H]4C[C@]5(COC(=O)N5)C4)C[C@@H]32)cc1OC(F)(F)F [Example 115, (2s,4S)-2-((1R,5S,6S)-6-(4-Methyl-3-(trifluoromethoxy)phenyl)-3-azabicyclo[3.1.0]hexane-3-carbonyl)-7-oxa-5-azaspiro[3.4]octan-6-one]

— patent US11708359B2, “Monoacylglycerol lipase modulators” (Janssen Pharmaceutica NV, priority 2020, dated 2023)
